Assay results as given in PubChem BioAssay (NCI).
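Cells were grown in 96-well plates and exposed to each compound for 48 hours at five concentrations; endpoints were interpolated linearly between bracketing concentrations, or set to the highest concentration if not reached. GI50 marks 50% less growth. TGI marks complete inhibition of growth.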

Tests used:
Assay in all cases: NCI anticancer screen, dose series, 48 h
A498 renal = system: A498 renal
LOX IMVI melanoma = system: LOX IMVI melanoma
OVCAR-4 ovarian = system: OVCAR-4 ovarian
OVCAR-3 ovarian = system: OVCAR-3 ovarian
UO-31 renal = system: UO-31 renal
OVCAR-5 ovarian = system: OVCAR-5 ovarian
OVCAR-8 ovarian = system: OVCAR-8 ovarian
SN12C renal = system: SN12C renal
EKVX NSCLC = system: EKVX NSCLC
BT-549 breast = system: BT-549 breast

| SMILES | TGI (A498 renal) | TGI (LOX IMVI melanoma) | TGI (OVCAR-4 ovarian) | TGI (OVCAR-3 ovarian) | TGI (UO-31 renal) | TGI (OVCAR-5 ovarian) | TGI (OVCAR-8 ovarian) | TGI (SN12C renal) | TGI (EKVX NSCLC) | GI50 (A498 renal) | GI50 (LOX IMVI melanoma) | GI50 (OVCAR-4 ovarian) | GI50 (OVCAR-3 ovarian) | GI50 (UO-31 renal) | GI50 (OVCAR-5 ovarian) | GI50 (OVCAR-8 ovarian) | GI50 (SN12C renal) | GI50 (EKVX NSCLC) | GI50 (BT-549 breast) | TGI (BT-549 breast) |
| --- | --- | --- | --- | --- | --- | --- | --- | --- | --- | --- | --- | --- | --- | --- | --- | --- | --- | --- | --- | --- |
| c1cnc2c(c1)Nc1cnncc1S2 | > 100 µM | > 100 µM | > 100 µM | > 100 µM | > 100 µM | > 100 µM | > 100 µM | > 100 µM | > 100 µM |  |  |  |  |  |  |  |  |  |  |  |
| C=C=[CH][Sn]([c]1ccccc1)([c]1ccccc1)[c]1ccccc1 | 2.56 µM | 2.87 µM | 3.38 µM | 4.61 µM | 3.18 µM | 2.9 µM | 3.68 µM | 3.19 µM | 4.78 µM | 1.24 µM | 1.43 µM | 1.47 µM | 1.54 µM | 1.44 µM | 1.46 µM | 1.85 µM | 1.68 µM | 1.7 µM |  |  |
| CCOC(=O)CNC(=O)C(CSC(=O)N(C)O)NC(=O)CCC(N)C(=O)O (stereo unspecified) | > 2000 µM |  | > 2000 µM | > 2000 µM | > 2000 µM |  | > 2000 µM | > 2000 µM | > 2000 µM | > 2000 µM | > 2000 µM | > 2000 µM | > 2000 µM | > 2000 µM |  | > 2000 µM | > 2000 µM | > 2000 µM |  |  |
| NNC(=S)N/N=C/C(Cl)=C(\Cl)C(=O)O | > 100 µM | > 100 µM | > 100 µM | > 100 µM | > 100 µM | > 100 µM | > 100 µM | > 100 µM | > 100 µM |  |  |  |  |  |  |  |  |  |  |  |
| COC(=O)C(=O)C1CCCCC(C2=NC3NN=C(N)N3C2=O)C1=O (stereo unspecified) | > 100 µM | > 100 µM | > 100 µM | > 100 µM | > 100 µM | > 100 µM | > 100 µM | > 100 µM | > 100 µM |  |  |  |  |  |  |  |  |  |  |  |
| NC(=O)CCC(NC(=O)C(F)(F)F)C(=O)O (stereo unspecified) | > 100 µM | > 100 µM | > 100 µM | > 100 µM | > 100 µM | > 100 µM | > 100 µM | > 100 µM | > 100 µM |  |  |  |  |  |  |  |  |  |  |  |
| CC12C(=O)N(CCN)C(=O)C1C1c3ccccc3C2c2ccccc21 (stereo unspecified) | > 100 µM |  | > 100 µM | > 100 µM | > 100 µM | > 100 µM | > 100 µM | > 100 µM | > 100 µM |  |  |  |  |  |  |  |  |  |  |  |
| C[C@]12CCCC(=O)C1C[C@H](C(=O)O)CC2 (stereo partly specified) | > 100 µM | > 100 µM | > 100 µM | > 100 µM | > 100 µM | > 100 µM | > 100 µM | > 100 µM |  |  |  |  |  |  |  |  |  |  |  |  |
| Cc1cccc(N=C2NC(=O)C(CC(=O)Nc3ccc(Cl)cc3C)S2)c1 (stereo unspecified) | > 100 µM | > 100 µM | > 100 µM | > 100 µM | > 100 µM | > 100 µM | > 100 µM | > 100 µM | > 100 µM |  |  |  |  |  |  |  |  |  |  |  |
| CCc1oc2ccc(OC)c3c2c1C=CC=C3 | > 100 µM | > 100 µM | > 100 µM | > 100 µM | > 100 µM | > 100 µM | > 100 µM | > 100 µM | > 100 µM |  |  |  |  |  |  |  |  |  |  |  |
| Cc1cc(=O)[nH]c(CNC(=O)Cc2ccccc2)n1 | > 100 µM | > 100 µM | > 100 µM | > 100 µM | > 100 µM | > 100 µM | > 100 µM | > 100 µM | > 100 µM |  |  |  |  |  |  |  |  |  |  |  |
| CC12OC3CC(O1)C1(C=O)C4CCC5(C)C(c6ccc(=O)oc6)CCC5(O)C4CCC1(C3)O2 (stereo unspecified) | 1.35 µM | 0.524 µM | 0.308 µM | 0.384 µM | 0.97 µM | 1.19 µM | 1.2 µM |  |  |  |  |  |  |  |  |  |  |  |  |  |
| CCC[CH2][Sn]1([CH2]CCC)[O]C(=O)c2cc(C)ccc2[O]1 | 1.79 µM | 1.13 µM | 2.06 µM | 1.91 µM | 2.45 µM | 3.04 µM | 2.05 µM | 1.86 µM | 1.94 µM | 0.565 µM | 0.309 µM | 0.707 µM | 0.614 µM | 1.19 µM | 1.66 µM | 0.725 µM | 0.547 µM | 0.579 µM |  |  |
| CS[C@@]1(C(=O)Nc2ccc3[nH]nc(-c4ccc(OC(C)C)nc4)c3c2)CCN(CC(=O)N2CC=C(c3ccc(-c4ncn(C)n4)cc3)CC2)C1 | 0.641 µM | 8.28 µM |  | > 100 µM | > 100 µM | > 100 µM | > 100 µM | > 100 µM |  | 0.176 µM | 0.204 µM |  | > 100 µM | 1.01 µM | 0.131 µM | 9.31 µM | > 100 µM |  | 9.43 µM | > 100 µM |
| O=[N+]([O-])c1cc(/C=N/NS(=O)(=O)c2ccc(F)cc2)c(O)c([N+](=O)[O-])c1 | 78.1 µM | > 100 µM | > 100 µM | 68 µM | > 100 µM | > 100 µM | 57.4 µM | > 100 µM | > 100 µM |  |  |  |  |  |  |  |  |  |  |  |
| C[N+]1=c2c3cccc4cccc(c(=O)n2CCC1)c43 | 36.5 µM | 29.4 µM | 42.9 µM | 55.1 µM | 39.5 µM | 36.5 µM | 39.9 µM | 52.7 µM | 65 µM |  |  |  |  |  |  |  |  |  |  |  |
| O=C1c2cccc3cc([N+](=O)[O-])cc(c23)C(=O)N1O |  | > 100 µM | > 100 µM | > 100 µM | > 100 µM | > 100 µM | > 100 µM | > 100 µM | > 100 µM |  |  |  |  |  |  |  |  |  |  | > 100 µM |
| CP(C)C.[Ag][I] |  | > 100 µM | 69.5 µM | > 100 µM | > 100 µM | > 100 µM | > 100 µM | > 100 µM | > 100 µM |  |  |  |  |  |  |  |  |  |  |  |
| CCOC(=O)N1CCC(=O)C[C@@H]1C/C=C/P1(=O)O[C@H](c2ccccc2)C(C)N1C(C)C (stereo partly specified) |  |  | > 100 µM | > 100 µM | > 100 µM | > 100 µM | > 100 µM | > 100 µM | > 100 µM |  |  |  |  |  |  |  |  |  |  |  |
| N#Cc1ccccc1Nc1ccccc1S | > 100 µM | 33.6 µM | > 100 µM |  | 72.4 µM | 97.8 µM | 94 µM | 97.1 µM | > 100 µM |  |  |  |  |  |  |  |  |  |  |  |
| O=C1c2ccccc2C(=O)c2sc(Nc3ccc(Cl)c(Cl)c3)nc21 | 31.6 µM | 4.73 µM | 5.69 µM | 6.3 µM | 4.97 µM | 7.58 µM | 8.02 µM | 3.23 µM | 29.5 µM |  |  |  |  |  |  |  |  |  |  |  |
| COC(=O)C1=Cc2c(OC)cc(OC)c(OC)c2[C@H](c2cc(OC)c(OC)cc2OC)C1C(=O)OC (stereo partly specified) | > 100 µM | > 100 µM | > 100 µM | > 100 µM | > 100 µM | > 100 µM | > 100 µM | > 100 µM | > 100 µM |  |  |  |  |  |  |  |  |  |  |  |
